The text below walks through data of article PMC2567432 (PLoS ONE, 2008).

Broadly, the Ki is a measure of affinity in units of concentration, obtained from inhibition or displacement. Low values mean tighter binding, high ones weaker binding. As a reminder, the IC50 is the concentration that gives 50% inhibition. High values mean a need for much substance, low ones inhibition by little substance.

Structures are written as SMILES.

One test has as its system astrocytoma 1321N1 cells. Put plainly: Cellular ATP content (CellTiter-Glo), 1321N1. Type of test: cell-based. The conditions noted are these: 1321N1, 6 h; curcumin 0–100 µM, MGO 0–1000 µM. The protocol:
(§1) Cellular ATP content was determined using the CellTiter-Glo® Luminescent Cell Viability Assay. Data represent the mean±S.D. of independent experiments (n = 12).
(§2) Cell ATP content was determined by means of the CellTiter-Glo® Luminescent Cell Viability Assay according to the manufacturer's instructions (Promega, Madison, USA). […] After 6-h incubation, cells were mixed with test reagents and luminescence was read according to the manufacturer's instructions. A standard curve was prepared from ATP (1 µM to 10 nM) in medium.
(In general: In ATP-based viability assays light output follows the ATP content of the culture.)

Test [1] concerns brain astrocytoma 1321N1 cells. The experiment in a line: Cell proliferation WST-1 assay, 1321N1. It is filed as cell-based. Conditions: 1321N1, 24 h; for anti-proliferative effect compared to curcumin: WST-1. The procedure:
(§3) Figure 3 Growth inhibition of different tumor cell lines by polyphenols. […] Following 24-h incubation, cell proliferation was evaluated using the WST-1 assay.
(§4) Tumor cells were cultured in RPMI medium containing 10% fetal calf serum (RPMI-FCS) (PC-3, JIMT-1, MDA-MD 231) or in DMEM-FCS (astrocytoma 1321N1 cells) containing penicillin/streptomycin (100 U penicillin/ml; 100 µg streptomycin/ml) at 37°C/5% CO2. Cytosolic protein extracts of tumor cells were prepared using extraction buffer composed of 25 mM Tris, 2 mM EDTA, 10% Glycerol, 1% Triton ×100, 2 mM DTT, 1mM PMSF, pH. 7.0 containing 0.3% protease inhibitor cocktail. Protein content was determined according to Bradford. Specific activity of enzymes analyzed in cell extracts was expressed as U/mg protein.
(§5) Cell proliferation/vitality of tumor cells (96-well plates; 5000 cells/well) and primary human hepatocytes (24-well plates; 0.25×10^6 cells/well) was assayed using the WST-1 assay according to manufacturer's instructions. Trypan blue exclusion was performed by staining cells with 0.4% aqueous trypan blue solution according to the manufacturer's instructions.
(In general: Formazan colour is commonly taken as a measure of viable cells.)

Test [2] relates to breast cancer JIMT-1 cells. Put plainly: Cell proliferation WST-1 assay, JIMT-1. Type of test: cell-based, human. Conditions: JIMT-1, 24 h, WST-1, increasing concentrations. The protocol:
as §3, §4, §5

The test system of the next test is JIMT-1 cells. The experiment in a line: Cellular ATP content (CellTiter-Glo), JIMT-1. Type of test: cell-based, human. The conditions noted are these: JIMT-1, 6 h; curcumin 0–100 µM, MGO 0–1000 µM. The procedure: as §1, §2
In another test the target is T1, glyoxalase 1 (Glo1) (Homo sapiens, UniProt Q04760).
T1 construct: Glo1 was purified from human erythrocytes as described earlier; from tissue; host or cells: human erythrocytes
T1 sequence (Q04760 2-184 limits assumed): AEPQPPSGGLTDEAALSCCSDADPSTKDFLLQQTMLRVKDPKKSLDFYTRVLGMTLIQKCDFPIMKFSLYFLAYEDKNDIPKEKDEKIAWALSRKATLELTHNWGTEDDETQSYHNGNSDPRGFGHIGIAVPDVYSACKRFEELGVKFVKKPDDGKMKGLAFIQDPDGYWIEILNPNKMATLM
Put plainly: Inhibition of purified glyoxalase 1 activity (Dixon plot). It is filed as biochemical. The conditions noted are these: purified Glo1 70 mU, substrates MGO and GSH, Dixon plot. The procedure:
Purified Glo1 (70 mU) was incubated with increasing concentrations of different polyphenols at three substrate concentrations; and enzyme activity was recorded (n = 3). The inhibitor concentration was plotted vs. the reciprocal of enzyme activity (1/v) in Dixon plots.
Glo1 was purified from human erythrocytes as described earlier. Briefly, erythrocytes were treated with butanol/chloroform to denature hemoglobin followed by acetone and ammonium sulphate fractionation.
The determination of Glo1 (E.C.4.4.1.5) activity has been described previously. […] The inhibition constant, Ki value of the inhibitors was evaluated by Dixon plot showing the reciprocal of enzyme velocity against the inhibitor concentration at variable concentrations of the substrate. Human Glo2 (E.C.3.1.2.6) was measured using the substrate S-lactoylglutathione as described earlier.
A goodness-of-fit criterion (Akaike's information criterion, AIC) was used for falsification of incompatible inhibition models. […] Spearman's rank correlation test was applied to evaluate the correlation between the IC50 values of pro-inflammatory cytokine release and the Ki-values of various polyphenols. Data were presented as means±S.D. of at least three independent experiments. […] In all other tests, significance has been considered at values of p<0.05.

Test [3] deals with IL-1β release from LPS-stimulated blood cells. Put plainly: Whole blood assay, LPS-induced IL-1β release (cytometric bead array). Type of test: cell-based. Conditions: Homo sapiens; heparinized whole blood, LPS 10 ng/ml, 6 h, 37°C. The protocol:
Figure 2 Effect of polyphenols on IL-1β release from LPS-stimulated blood cells. Heparinized whole blood was stimulated by LPS in the absence or presence of polyphenols at increasing concentrations and incubated for 6 h at 37°C with 5% CO2. (A) Released IL-1β as measured in cell supernatants. Samples without additives but LPS were set at 100%. (B) The calculated […] values of the respective polyphenols. Data represent mean±S.D. of independent experiments (n = 6).
Whole blood assay was performed as previously described. Accordingly, LPS (10 ng/ml), test substances and 200 µl heparinized human blood of healthy donors, obtained from the blood bank of the University of Leipzig, were co-incubated with serum-free medium (RPMI-SF, 1 ml final volume) in 24-well culture plates for 6 h at 37°C with 5% CO2. Samples were removed, centrifuged at 2000×g for 10 min and supernatants were stored at −20°C until assaying for inflammatory cytokines.
Assessment of cytokine levels in supernatants of human blood cell cultures was accomplished using Cytometric Bead Array (CBA™, BD Biosciences, San Jose, U.S.A). The procedure was carried out according to the manufacturer's instruction. Fluorescence measurement and analysis were performed using a FACSCalibur and the CellQuest software (BD Biosciences).

On to `CC(=O)C=O` [MGO, methylglyoxal, reference compound], for which the “cellular ATP content” value in the test with astrocytoma 1321N1 cells and in the test with JIMT-1 cells was “comparable effects” in each case. Besides, the “effect on cell proliferation” value in test [1] (WST-1, increasing concentrations) was “anti-proliferative properties”; in test [2] it was “anti-proliferative properties”.

For the molecule `O=c1c(O)c(-c2ccc(O)cc2)oc2cc(O)cc(O)c12` [kaempferol], the affinity on glyoxalase 1 (Glo1) corresponds to a Ki of 21 ± 3.8 µM. This molecule also yielded an IC50 in test [3] of 34.6 µM.

On glyoxalase 1 (Glo1), `O=c1cc(-c2ccc(O)c(O)c2)oc2cc(O)cc(O)c12` [luteolin] registered a Ki of 35 ± 6.3 µM. The concentration for half-maximal inhibition (IC50) in test [3] is 68 µM.

In the case of `O=c1c(O)c(-c2cc(O)c(O)c(O)c2)oc2cc(O)cc(O)c12` [myricetin], the “anti-proliferative effect compared to curcumin” value in test [1] is “less anti-proliferative”.

Turning to `O=c1c(O)c(-c2ccc(O)c(O)c2)oc2cc(O)cc(O)c12` [quercetin], in test [3], the IC50 is 20 µM. Besides, the “anti-proliferative effect compared to curcumin” value in test [1] is given as “less anti-proliferative”.

As to `C[C@@H]1O[C@@H](OC[C@H]2O[C@@H](Oc3c(-c4ccc(O)c(O)c4)oc4cc(O)cc(O)c4c3=O)[C@H](O)[C@@H](O)[C@@H]2O)[C@H](O)[C@H](O)[C@H]1O` [rutin], the affinity at glyoxalase 1 (Glo1), expressed as Ki, was 140 ± 15 µM.
